Data taken from US20260242789A1 (priority 2023, published 2026).
Where a name gives a salt, the structure may show the parent alone. Read-outs that look alike come from different tables or passages of the source.

Legend:
[1] = target: T1, SAMD9^134-385 protein (SAMD9 tRNase) (Homo sapiens, UniProt Q5K651); test: biochemical
T1 construct: The recombinant SAMD9^134-385 or SAMD9^156-385 protein was expressed and purified from E. coli; SUMO (cleaved yes); 6xHis (cleaved yes); made in house; host or cells: E. coli
T1 sequence (Q5K651 134-385): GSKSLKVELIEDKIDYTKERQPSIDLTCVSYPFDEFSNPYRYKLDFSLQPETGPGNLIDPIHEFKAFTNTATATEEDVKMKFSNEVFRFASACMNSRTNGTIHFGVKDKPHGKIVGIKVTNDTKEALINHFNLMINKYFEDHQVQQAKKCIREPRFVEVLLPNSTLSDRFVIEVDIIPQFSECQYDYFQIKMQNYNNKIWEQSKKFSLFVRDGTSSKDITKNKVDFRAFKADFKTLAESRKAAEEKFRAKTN

[2] = target: T1, SAMD9^134-385 protein (SAMD9 tRNase); format: biochemical; details: at 2×IC50 concentration, two hours of reaction
[3] = target: T2, SAMD9 tRNase:tRNA complex (Homo sapiens, UniProt Q5K651); format: binding
T2 construct: The recombinant SAMD9^134-385 or SAMD9^156-385 protein was expressed and purified from E. coli; SUMO (cleaved yes); 6xHis (cleaved yes); made in house; host or cells: E. coli
T2 sequence (Q5K651 134-385): T1 sequence (Q5K651 134-385)

## NCCOc1cc(C(=O)Nc2cc(OCCN)c3ccccc3n2)nc(C(=O)Nc2cc(OCCN)c3ccccc3n2)c1 [Pyridostatin TFA]
[1]
  IC50: 7800 nM
[2]
  cleavage of yeast tRNA by SAMD9 tRNase: partially reduced

## Salvianolic acid B
[1]; dose response studies, cleavage of Phe17-Fret by SAMD9 tRNase, read-out: IC50
  IC50: 3000 nM
[2]
  cleavage of yeast tRNA by SAMD9 tRNase: blocked
[3]; 20:1 molar ratio
  disruption of the SAMD9 tRNase:tRNA complex: minor effect
[3]; 100:1 molar ratio
  disruption of the SAMD9 tRNase:tRNA complex: did not completely disrupt

## Cc1cc(-c2ccc(/N=N/c3ccc4c(S(=O)(=O)O)cc(S(=O)(=O)O)c(N)c4c3O)c(C)c2)ccc1/N=N/c1ccc2c(S(=O)(=O)O)cc(S(=O)(=O)O)c(N)c2c1O [Evans Blue]
[1]
  IC50: 1200 nM
[2]
  cleavage of yeast tRNA by SAMD9 tRNase: blocked
[3]; 2:1 molar ratio
  disruption of the SAMD9 tRNase:tRNA complex: disrupted the complex
[3]; 20:1 molar ratio
  disruption of the SAMD9 tRNase:tRNA complex: completely disrupted
